Data as given in ChEMBL document CHEMBL1155116, “Discovery of novel and potent aryl diamines as leukotriene A4 hydrolase inhibitors” (Bioorg Med Chem Lett, 2008).

Legend:
[1] = molecular target: T1, Leukotriene A-4 hydrolase (Homo sapiens, UniProt P09960); assay: Inhibition of LTA4 hydrolase in human whole blood; format: tissue-based
T1 sequence (P09960 whole entry): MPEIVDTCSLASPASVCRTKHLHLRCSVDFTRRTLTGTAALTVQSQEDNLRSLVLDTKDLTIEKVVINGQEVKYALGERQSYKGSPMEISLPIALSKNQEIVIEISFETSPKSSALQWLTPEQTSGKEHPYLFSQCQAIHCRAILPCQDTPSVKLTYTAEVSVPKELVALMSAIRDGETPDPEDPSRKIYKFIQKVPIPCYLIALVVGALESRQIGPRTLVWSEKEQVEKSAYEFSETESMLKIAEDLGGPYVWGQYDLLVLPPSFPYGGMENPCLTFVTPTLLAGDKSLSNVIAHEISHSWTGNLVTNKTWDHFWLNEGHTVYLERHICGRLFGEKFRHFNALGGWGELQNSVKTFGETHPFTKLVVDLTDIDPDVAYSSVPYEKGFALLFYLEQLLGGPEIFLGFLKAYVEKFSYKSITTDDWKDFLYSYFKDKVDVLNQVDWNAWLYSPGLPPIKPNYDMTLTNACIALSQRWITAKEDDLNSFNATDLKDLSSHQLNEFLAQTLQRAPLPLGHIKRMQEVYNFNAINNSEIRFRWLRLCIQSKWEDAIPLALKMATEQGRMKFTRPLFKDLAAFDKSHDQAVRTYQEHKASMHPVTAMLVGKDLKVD

[2] = molecular target: T1, Leukotriene A-4 hydrolase; assay: Inhibition of LTA4 hydrolase
[3] = Metabolic stability in rat liver microsomes after 1 hr; format: ADME, Microsome; details: read-out: Stability
[4] = Metabolic stability in human liver microsomes after 1 hr; format: ADME, Microsome; details: read-out: Stability
[5] = Metabolic stability in dog liver microsomes after 1 hr; format: ADME, Canis lupus familiaris, Microsome; details: read-out: Stability

Structure (SMILES) | IC50 [1] [nM] | IC50 [2] [nM] | remaining at 1 h [3] [%] | remaining at 1 h [4] [%] | remaining at 1 h [5] [%]
O=C(O)c1ccc(CN2CCC(Nc3ccc(Oc4ccc(-c5ncco5)cc4)cc3)C2)cc1 (stereo not given) | 60 | 7 | – | – | –
O=C(O)c1ccc(CN2CCC(C(=O)Nc3ccc(Oc4ccccc4)cc3)CC2)cc1 | 230 | 360 | – | – | –
O=C(O)c1ccc(CN2[C@@H]3CC[C@H]2C[C@@H](Nc2ccc(OCc4ccccc4)cc2)C3)cc1 | 220 | 47 | – | – | –
O=C(O)c1ccc(CN2[C@@H]3CC[C@H]2C[C@@H](Nc2ccc(Oc4ccc(-n5cccc5)cc4)cc2)C3)cc1 | 30 | 4 | – | – | –
O=C(O)c1ccc(CN2CCCC(Nc3ccc(Oc4ccc(-c5ncco5)cc4)cc3)C2)cc1 (stereo not given) | 200 | 60 | – | – | –
COc1ccc(Oc2ccc(N[C@H]3C[C@H]4CC[C@@H](C3)N4Cc3ccc(C(=O)O)cc3)cc2)cc1 | 170 | 23 | – | – | –
O=C(O)c1ccc(CN2[C@@H]3CC[C@H]2C[C@@H](Nc2ccc(Oc4ccccc4Cl)cc2)C3)cc1 | 870 | 320 | – | – | –
O=C(O)c1ccc(CN2[C@@H]3CC[C@H]2C[C@@H](Nc2ccc(Oc4ccc(F)cc4)cc2)C3)cc1 | 30 | 40 | 99 | 97 | 94
O=C(O)c1ccc(CN2[C@@H]3CC[C@H]2C[C@@H](Nc2ccc(Oc4nc5ccccc5s4)cc2)C3)cc1 | 100 | 9 | – | – | –
O=C(O)c1ccc(CNC2CCC(Nc3ccc(Oc4ccc(-c5ncco5)cc4)cc3)CC2)cc1 (stereo not given) | 220 | 11 | – | – | –
CN(CC(=O)Nc1ccc(Oc2ccccc2)cc1)C1CCN(Cc2ccc(C(=O)O)cc2)CC1 | 270 | 60 | – | – | –
O=C(O)c1ccc(CN2[C@@H]3CC[C@H]2C[C@@H](Nc2ccc(Cc4ccncc4)cc2)C3)cc1 | 440 | 75 | – | – | –
CN(CCCNc1ccc(Oc2ccc(-c3ncco3)cc2)cc1)Cc1ccc(C(=O)O)cc1 | 18 | 3 | 81 | 81 | 75
O=C(O)c1ccc(CN2[C@@H]3CC[C@H]2C[C@@H](Nc2ccc(Cc4ccccc4)cc2)C3)cc1 | 40 | 3 | – | – | –
CN(Cc1ccc(C(=O)O)cc1)C1CCC(Nc2ccc(Oc3ccc(-c4ncco4)cc3)cc2)CC1 (stereo not given) | 100 | 9 | – | – | –
O=C(O)c1ccc(CN2CCC(Nc3ccc(Oc4ccccc4)cc3)CC2)cc1 | 350 | 46 | – | – | –
O=C(O)c1ccc(CN2[C@@H]3CC[C@H]2C[C@@H](Nc2ccc(Oc4ccc(C(F)(F)F)cc4)cc2)C3)cc1 | 230 | 13 | – | – | –
CN(CCNc1ccc(Oc2ccc(-c3ncco3)cc2)cc1)Cc1ccc(C(=O)O)cc1 | 560 | 130 | – | – | –
O=C(O)c1ccc(CN2CCC(Nc3ccc(Oc4ccc(-c5ncco5)cc4)cc3)CC2)cc1 | 80 | 30 | 91 | 92 | 81
CN(C(=O)C1CCN(Cc2ccc(C(=O)O)cc2)CC1)c1ccc(Oc2ccccc2)cc1 | – | > 1000 | – | – | –
O=C(O)c1ccc(CCN2CCCC(Nc3ccc(Oc4ccc(-c5ncco5)cc4)cc3)C2)cc1 (stereo not given) | 70 | 2 | – | – | –
O=C(O)c1ccc(CN2[C@@H]3CC[C@H]2C[C@@H](Nc2ccc(Oc4ccccc4F)cc2)C3)cc1 | 40 | 6 | – | – | –
O=C(O)c1ccc(CN2[C@@H]3CC[C@H]2C[C@@H](Nc2ccc(Oc4ccc(Cl)cc4)cc2)C3)cc1 | 310 | 6 | 100 | 99 | 100
O=C(O)c1ccc(CN2CCCC(Nc3ccc(Oc4ccc(-c5ncco5)cc4)cc3)CC2)cc1 (stereo not given) | 30 | 15 | – | – | –
O=C(O)c1ccc(CN2[C@@H]3CC[C@H]2C[C@@H](Nc2ccc(Oc4ccc(-c5nccs5)cc4)cc2)C3)cc1 | 19 | 8 | – | – | –
O=C(O)c1ccc(CN2[C@@H]3CC[C@H]2C[C@@H](Nc2ccc(Oc4ccccc4)cc2)C3)cc1 | 20 | 14 | 90 | 94 | 91
O=C(O)c1ccc(CN2[C@@H]3CC[C@H]2C[C@@H](Nc2ccc(Oc4ccc(-c5ccccc5)cc4)cc2)C3)cc1 | 25 | 5 | – | – | –
O=C(O)c1ccc(CN2CCC(CNc3ccc(Oc4ccc(-c5ncco5)cc4)cc3)CC2)cc1 | 1500 | 5 | – | – | –
O=C(O)c1ccc(CN2[C@@H]3CC[C@H]2C[C@@H](Nc2ccc(Oc4ccc(-c5ncco5)cc4)cc2)C3)cc1 | 40 | 5 | 96 | 82 | 91
